# Source: PubChem BioAssay (NCI)
# Where “and” joins values, the source holds several entries; their conditions need not be identical. Equal values may be shown once.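 1) Cells in 96-well plates. 2) Compound, 48 h, 5 concentrations. 3) Linear interpolation between surrounding doses. 4) Unreached endpoint = highest concentration. At the GI50, growth is halved. The concentration for full growth arrest is given as TGI.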 Where a SMILES comes first, the peptide text is derived from it. [ ]: non-standard residue; d: D form. Phe(F5) = N[CH](Cc1c(F)c(F)c(F)c(F)c1F)C(=O)O
# Assays:
# Experiment in all cases: NCI tumour cell line growth inhibition, 48 h
# SF-268 CNS = test system: SF-268 CNS
# HCT-15 colon = test system: HCT-15 colon
# SR leukemia = test system: SR leukemia
# COLO 205 colon = test system: COLO 205 colon
# M14 melanoma = test system: M14 melanoma
# DU-145 prostate = test system: DU-145 prostate
# SF-539 CNS = test system: SF-539 CNS
# RPMI-8226 leukemia = test system: RPMI-8226 leukemia
# MALME-3M melanoma = test system: MALME-3M melanoma
# SW-620 colon = test system: SW-620 colon
SMILES,GI50 (SF-268 CNS),TGI (SF-268 CNS),GI50 (HCT-15 colon),TGI (HCT-15 colon),GI50 (SR leukemia),TGI (SR leukemia),GI50 (COLO 205 colon),TGI (COLO 205 colon),GI50 (M14 melanoma),TGI (M14 melanoma),GI50 (DU-145 prostate),TGI (DU-145 prostate),GI50 (SF-539 CNS),TGI (SF-539 CNS),GI50 (RPMI-8226 leukemia),TGI (RPMI-8226 leukemia),GI50 (MALME-3M melanoma),TGI (MALME-3M melanoma),GI50 (SW-620 colon),TGI (SW-620 colon)
CCN1C(=O)N(CC)C2C1NN=c1s/c(=C3\C(=O)N(C(C)C)c4ccccc43)c(=O)n12 (stereo not drawn),0.722 µM,> 70.3 µM,0.322 µM,> 100 µM,0.426 µM,> 100 µM,0.337 µM,1.8 µM,0.376 µM,> 100 µM,0.377 µM,3.13 µM,0.24 µM,0.706 µM,0.429 µM,> 100 µM,1.18 µM,> 100 µM,0.417 µM,> 100 µM
c1ccc2[nH]c(-c3ccc(N4CCN(c5ccc(-c6nc7ccccc7[nH]6)cc5)CC4)cc3)nc2c1,> 100 µM,> 100 µM,> 100 µM,> 100 µM,3.08 µM,6.85 µM,> 100 µM,> 100 µM,12.4 µM,> 100 µM,37.5 µM,> 100 µM,> 100 µM,> 100 µM,40 µM,> 100 µM,> 100 µM,> 100 µM,58 µM,> 100 µM
COC(=O)C(CC(C)C)NC(=O)C(Cc1cnc[nH]1)NC(=O)CNC(=O)C(NC(=O)C(C)NC(=O)C(Cc1c[nH]c2ccccc12)NC(=O)C(CCC(=O)O)NC(=O)C(N)Cc1c(F)c(F)c(F)c(F)c1F)C(C)C (stereo not drawn) (H-[Phe(F5)]EWAVGHL-OMe; configuration not given here),–,> 12.5 µM,> 100 µM,> 100 µM,> 100 µM,> 100 µM,> 100 µM,> 100 µM,> 100 µM,> 100 µM,–,> 12.5 µM,> 100 µM,> 100 µM,> 100 µM,> 100 µM,–,> 12.5 µM,> 100 µM,> 100 µM
N=C(N)c1nn(C2OC(CO)C(O)C2O)c2nc[nH]c(=O)c12 (stereo not drawn),0.445 µM,3.04 µM,0.587 µM,5.71 µM,0.34 µM,–,1.01 µM,3.26 µM,0.454 µM,1.75 µM,0.196 µM,0.78 µM,0.367 µM,1.75 µM,0.352 µM,2.5 µM,0.206 µM,0.612 µM,0.53 µM,3.28 µM
CC12CCC=CC1CCC1C2CCC2(C)C(c3ccc(=O)oc3)CCC12O (stereo not drawn),0.041 µM,0.253 µM,0.0923 µM,0.428 µM,0.0311 µM,0.11 µM,0.333 µM,1.56 µM,0.154 µM,0.519 µM,0.0553 µM,0.165 µM,0.0531 µM,0.18 µM,0.0994 µM,0.777 µM,0.0423 µM,0.204 µM,0.0558 µM,0.33 µM
CCc1ccc(NC(=O)Nc2c[nH]c3ccccc23)cc1,4.24 µM,> 43.4 µM,17.8 µM,> 55.2 µM,2.2 µM,> 100 µM,> 38.9 µM,> 54 µM,> 39.8 µM,> 57 µM,> 34 µM,> 51.5 µM,3.09 µM,> 40.6 µM,0.567 µM,> 100 µM,8 µM,> 49.4 µM,> 38.3 µM,> 55 µM
CN(C)c1ccc2nc3ccc(=[N+](C)C)cc-3oc2c1,1.59 µM,4.64 µM,3.48 µM,> 100 µM,2.06 µM,23.8 µM,0.391 µM,1.68 µM,0.959 µM,3.77 µM,5.71 µM,49.4 µM,0.707 µM,15.4 µM,0.684 µM,21 µM,1.67 µM,4.13 µM,1.74 µM,> 100 µM
CC(=O)OC1c2ccccc2CC2(OC(C)=O)c3ccccc3C12 (stereo not drawn),–,> 100 µM,–,> 100 µM,–,> 100 µM,–,> 100 µM,–,> 100 µM,–,> 100 µM,–,> 100 µM,–,> 100 µM,–,> 100 µM,–,> 100 µM
C=C(C)[C@@H]1CC[C@]2(C(=O)NCCCN)CC[C@]3(C)[C@H](CC[C@@H]4[C@@]5(C)CC[C@H](O)C(C)(C)[C@@H]5CC[C@]43C)[C@@H]12,23 µM,63.8 µM,21.7 µM,> 100 µM,9.05 µM,> 100 µM,21 µM,> 100 µM,24.7 µM,> 100 µM,17.5 µM,37.1 µM,17.9 µM,52 µM,17.2 µM,92.6 µM,23.3 µM,94.1 µM,22.5 µM,> 100 µM
Fc1ccc(-c2nc3n(c2-c2ccncc2)CCS3)cc1,> 25 µM,> 25 µM,> 25 µM,> 25 µM,> 25 µM,> 25 µM,> 25 µM,> 25 µM,> 25 µM,> 25 µM,> 25 µM,> 25 µM,> 25 µM,> 25 µM,> 25 µM,> 25 µM,> 25 µM,> 25 µM,> 25 µM,> 25 µM
CCCN(Cc1ccc(F)cc1)c1ccc(CO)c(Cl)c1,16.1 µM,32.1 µM,5.35 µM,19.8 µM,13.6 µM,35.4 µM,3.96 µM,13.6 µM,14.3 µM,32.9 µM,13.3 µM,26.5 µM,15.3 µM,29 µM,1.91 µM,14 µM,14.1 µM,28.6 µM,1.07 µM,15.6 µM
CCN(CC)CCOc1ccc(C(=C(C)c2ccc(Cl)cc2)c2ccc(OCCN(CC)CC)cc2)cc1,0.659 µM,1.49 µM,0.556 µM,1.08 µM,0.484 µM,1.25 µM,0.581 µM,1.16 µM,0.633 µM,1.14 µM,1.09 µM,3.47 µM,0.59 µM,1.1 µM,0.668 µM,1.49 µM,0.563 µM,1.09 µM,0.556 µM,1.1 µM
CC[C@H](Nc1nc(N)nc(C)c1C#N)c1nc2cccc(CN(C)c3ncc(C(=O)NO)cn3)c2c(=O)n1-c1ccccc1,1.09 µM,4.19 µM,2.11 µM,12 µM,0.396 µM,> 50 µM,–,–,1.08 µM,7.01 µM,1.11 µM,> 16.7 µM,0.591 µM,6.12 µM,0.212 µM,> 40.8 µM,0.129 µM,2.47 µM,0.392 µM,3.43 µM
c1ccc2nc(Cn3c[n+](Cc4ccc5ccccc5n4)c4ccccc43)ccc2c1,2.97 µM,14.2 µM,15.1 µM,32.6 µM,1.69 µM,5.48 µM,1.37 µM,3.22 µM,1.99 µM,6.99 µM,4.55 µM,17 µM,2.61 µM,12 µM,0.681 µM,4.05 µM,1.26 µM,4.7 µM,3.3 µM,15.4 µM
O=c1cc(CNc2cc(F)cc(F)c2)c2ccc(I)cc2[nH]1,–,> 100 µM,0.387 µM,> 100 µM,0.129 µM,> 100 µM,0.606 µM,> 100 µM,0.52 µM,> 100 µM,1.69 µM,> 100 µM,0.461 µM,> 69.9 µM,0.759 µM,> 100 µM,0.714 µM,> 100 µM,0.384 µM,> 100 µM
Cn1c(=O)c2[nH]c(/N=N/N3CCN(CCO)CC3)nc2n(C)c1=O,–,> 100 µM,–,> 100 µM,–,> 100 µM,–,> 100 µM,–,> 100 µM,–,> 100 µM,–,> 100 µM,–,> 100 µM,–,> 100 µM,–,> 100 µM
CC12CCC(=O)C=C1CCC1C2CCC2(C)C(C(=O)Cn3cnc4c(=S)nc[nH]c43)CCC12 (stereo not drawn),–,> 100 µM,–,> 100 µM,–,> 100 µM,–,> 100 µM,–,> 100 µM,–,66.4 µM,–,> 100 µM,–,> 100 µM,–,> 100 µM,–,> 100 µM
O=C(Nc1cccc(Cl)c1)Nc1ncc(CCNc2ncnc3ccsc23)s1,5.85 µM and 2.75 µM,29.6 µM and > 10 µM,2.99 µM and 1.79 µM,20.4 µM and > 10 µM,–,20.8 µM and > 10 µM,< 0.0105 µM and 0.00997 µM,8.36 µM and 3.88 µM,2.3 µM and 1.91 µM,11.6 µM and > 10 µM,4.59 µM and 2.74 µM,20.5 µM and > 10 µM,0.635 µM and 0.53 µM,16.9 µM and > 10 µM,2.98 µM and 1.32 µM,33.5 µM and 5.81 µM,3.23 µM and 4.07 µM,26 µM and > 10 µM,14.5 µM and > 10 µM,65.3 µM and > 10 µM
COc1cc2c(cc1OC)-c1ccc3cc4c(cc3c1N(CCN1CCCC1)C2)OCO4,0.36 µM,2 µM,1.5 µM,3.4 µM,0.0696 µM,1.23 µM,0.299 µM,1.56 µM,0.574 µM,1.89 µM,0.376 µM,2.5 µM,0.643 µM,2.75 µM,0.224 µM,0.723 µM,2.05 µM,14.2 µM,0.472 µM,2.28 µM
CC(C)(O)c1ccc(N2CCN(c3nnc(Cc4ccccc4)c4ccccc34)CC2)nc1,13.8 µM,33.5 µM,8.31 µM,28.7 µM,18.6 µM,> 100 µM,5.41 µM,16 µM,8.86 µM,23 µM,12.1 µM,34.8 µM,12.7 µM,29.2 µM,–,–,5.28 µM,17.9 µM,17.1 µM,38.5 µM
CCc1ccc(NCc2cc(OC)c(OC)c(OC)c2)cc1,0.862 µM and 1.78 µM,43.6 µM and 64.8 µM,–,42.2 µM and 20.4 µM,–,44.6 µM and > 100 µM,0.251 µM and 0.333 µM,1.3 µM and 1.47 µM,0.261 µM and 0.392 µM,27.6 µM,–,> 100 µM and 19.5 µM,0.296 µM and 0.107 µM,1.02 µM and 0.814 µM,–,40.7 µM and 52 µM,–,30.8 µM and 35.6 µM,0.0871 µM and 0.0541 µM,> 100 µM
NC(=O)[C@H]1CCN(c2ncnc(N)c2F)C[C@@H]1N1CCC[C@@H](Nc2cc(Cl)cc(C(F)(F)F)c2)C1=O,23.8 µM,> 100 µM,15.1 µM,48.2 µM,28.1 µM,83.8 µM,5.24 µM,34.2 µM,12.8 µM,36.8 µM,10.8 µM,> 100 µM,14.5 µM,33.2 µM,16.8 µM,56.3 µM,19.1 µM,42.8 µM,25.6 µM,> 100 µM
CN(C)CCNC(=O)c1cccn2c(=O)c3cc4ccccc4cc3nc12,0.126 µM,3.38 µM,0.2 µM,> 100 µM,0.0457 µM,> 100 µM,0.0973 µM,0.246 µM,0.222 µM,1.21 µM,0.103 µM,0.391 µM,0.161 µM,1.6 µM,0.24 µM,–,0.116 µM,0.617 µM,0.0515 µM,2.08 µM
Fc1ccc2[nH]cc(Cc3c[nH]c4ccc(F)cc34)c2c1,17.5 µM,77.6 µM,17.5 µM,55.6 µM,31.1 µM,> 100 µM,28.2 µM,95.6 µM,20.2 µM,42.9 µM,27.8 µM,85.7 µM,15.7 µM,33.6 µM,21 µM,62.2 µM,16.7 µM,33.8 µM,23.7 µM,58.8 µM
N#CSc1ncnc2nc[nH]c12,4.24 µM,> 41.1 µM,8.82 µM,> 100 µM,4.02 µM,32.2 µM,5.31 µM,22 µM,1.78 µM,> 100 µM,0.548 µM,> 38.7 µM,4.14 µM,> 65.9 µM,4.13 µM,> 100 µM,10.6 µM,> 100 µM,7.85 µM,> 100 µM
CC1=CC(=O)c2c(O)cccc2C1=O,–,3.96 µM,–,–,–,4.95 µM,–,3.39 µM,–,3.3 µM,–,3.02 µM,–,3.92 µM,–,1.83 µM,–,2.19 µM,–,4.15 µM
